Several values for one entry are separate records, joined by “and”; a condition that tells them apart may be missing. Identical values can stand only once.
Tested on: 653999-131-R-J2-PDC complex spheroids, growth % test/control
Experiment: Anticancer human tumor 653999-131-R-J2-PDC patient-derived lung adenocarcinoma cell line growth inhibition [AhR]
Conditions: for viability, T/C: stronger effect = lower value
Summary of the method: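 Complex tumor spheroids co-cultured with HUVEC and human MSC stroma; AhR antagonists tested in combination with standard-of-care and investigational agents. Top concentration at or near clinical Cmax (else 10 microM), half-log dilutions; growth expressed as percent test/control.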

[1] = curve of first compound, second compound 0.1 µM
[2] = curve of first compound, second compound 0.316 µM
[3] = curve of first compound, second compound 1 µM
[4] = curve of first compound, second compound 3.16 µM
[5] = curve of first compound, second compound 10 µM
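Further: spheroids exposed to agents for seven days.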
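Wherever viability, T/C is given: 100% = DMSO vehicle control viability.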

Compound: CC1COCCN1c1cc(-c2ccnn2C)c2ccnc(-c3ccn[nH]3)c2n1 (centres undefined)
- viability, T/C (compound 0.00316 µM): 97.3% and 102% and 106%
- viability, T/C (compound 0.01 µM): 92.7% and 98.5% and 104%
- viability, T/C (compound 0.0316 µM): 77.3% and 77.9% and 90.3%
- viability, T/C (compound 0.1 µM): 58.7% and 58.6% and 62.5%
- viability, T/C (compound 0.316 µM): 32.9% and 34% and 41.3%
- viability, T/C (compound 1 µM): 24% and 30.5% and 29.1%
- IC50 (curve of compound): 141 nM and 142 nM and 194 nM

Compound: O=C(C=Cc1cccc(S(=O)(=O)Nc2ccccc2)c1)NO + Cc1ccccc1N=Nc1ccc(NC(=O)c2ccnn2C)c(C)c1
- IC50 [1]: 3900 nM
- IC50 [2]: 3260 nM
- IC50 [3]: 3560 nM
- IC50 [4]: 3250 nM
- IC50 [5]: 2860 nM
- viability, T/C (second compound 0.1 µM, first compound 0.0316 µM): 110%
- viability, T/C (second compound 0.1 µM, first compound 0.1 µM): 105%
- viability, T/C (second compound 0.1 µM, first compound 0.316 µM): 91.4%
- viability, T/C (second compound 0.1 µM, first compound 1 µM): 94.7%
- viability, T/C (second compound 0.1 µM, first compound 3.16 µM): 56.6%
- viability, T/C (second compound 0.1 µM, first compound 10 µM): 11.3%
- viability, T/C (second compound 0.316 µM, first compound 0.0316 µM): 92.8%
- viability, T/C (second compound 0.316 µM, first compound 0.1 µM): 94.8%
- viability, T/C (second compound 0.316 µM, first compound 0.316 µM): 88%
- viability, T/C (second compound 0.316 µM, first compound 1 µM): 90.6%
- viability, T/C (second compound 0.316 µM, first compound 3.16 µM): 51.1%
- viability, T/C (second compound 0.316 µM, first compound 10 µM): 9.29%
- viability, T/C (second compound 1 µM, first compound 0.0316 µM): 99.7%
- viability, T/C (second compound 1 µM, first compound 0.1 µM): 101%
- viability, T/C (second compound 1 µM, first compound 0.316 µM): 93.2%
- viability, T/C (second compound 1 µM, first compound 1 µM): 80.2%
- viability, T/C (second compound 1 µM, first compound 3.16 µM): 54.9%
- viability, T/C (second compound 1 µM, first compound 10 µM): 10.3%
- viability, T/C (second compound 3.16 µM, first compound 0.0316 µM): 101%
- viability, T/C (second compound 3.16 µM, first compound 0.1 µM): 93.1%
- viability, T/C (second compound 3.16 µM, first compound 0.316 µM): 99%
- viability, T/C (second compound 3.16 µM, first compound 1 µM): 81.5%
- viability, T/C (second compound 3.16 µM, first compound 3.16 µM): 51.4%
- viability, T/C (second compound 3.16 µM, first compound 10 µM): 10.1%
- viability, T/C (second compound 10 µM, first compound 0.0316 µM): 82.6%
- viability, T/C (second compound 10 µM, first compound 0.1 µM): 85.5%
- viability, T/C (second compound 10 µM, first compound 0.316 µM): 76.7%
- viability, T/C (second compound 10 µM, first compound 1 µM): 71.8%
- viability, T/C (second compound 10 µM, first compound 3.16 µM): 47.8%
- viability, T/C (second compound 10 µM, first compound 10 µM): 7.74%

Compound: CCc1c2c(nc3ccc(O)cc13)-c1cc3c(c(=O)n1C2)COC(=O)[C@]3(O)CC
- viability, T/C (compound 0.000949 µM): 79% and 89.9% and 76.4%
- viability, T/C (compound 0.003 µM): 75.3% and 80.9% and 76.6%
- viability, T/C (compound 0.00949 µM): 54.4% and 59.1% and 45.1%
- viability, T/C (compound 0.03 µM): 38.8% and 44.1% and 33.3%
- viability, T/C (compound 0.0949 µM): 29.4% and 35.4% and 27.7%
- viability, T/C (compound 0.3 µM): 20.6% and 19.6% and 16.8%
- IC50 (curve of compound): 14.6 nM and 22.1 nM and 9.27 nM

Compound: CC(C)CC(NC(=O)C(Cc1ccccc1)NC(=O)c1cnccn1)B(O)O (centres undefined) + CC(CO)NC(=O)c1cc(-c2ccc(Cl)cc2)nn(-c2cnn(C)c2)c1=O
- IC50 [1]: 14.1 nM
- IC50 [2]: 13.4 nM
- IC50 [3]: 15.4 nM
- IC50 [4]: 15.7 nM
- IC50 [5]: 16.4 nM
- viability, T/C (second compound 0.1 µM, first compound 0.000949 µM): 108%
- viability, T/C (second compound 0.1 µM, first compound 0.003 µM): 116%
- viability, T/C (second compound 0.1 µM, first compound 0.00949 µM): 65.1%
- viability, T/C (second compound 0.1 µM, first compound 0.03 µM): 20.3%
- viability, T/C (second compound 0.1 µM, first compound 0.0949 µM): 9.49%
- viability, T/C (second compound 0.1 µM, first compound 0.3 µM): 3.53%
- viability, T/C (second compound 0.316 µM, first compound 0.000949 µM): 111%
- viability, T/C (second compound 0.316 µM, first compound 0.003 µM): 121%
- viability, T/C (second compound 0.316 µM, first compound 0.00949 µM): 64.6%
- viability, T/C (second compound 0.316 µM, first compound 0.03 µM): 17.8%
- viability, T/C (second compound 0.316 µM, first compound 0.0949 µM): 11.5%
- viability, T/C (second compound 0.316 µM, first compound 0.3 µM): 2.06%
- viability, T/C (second compound 1 µM, first compound 0.000949 µM): 101%
- viability, T/C (second compound 1 µM, first compound 0.003 µM): 122%
- viability, T/C (second compound 1 µM, first compound 0.00949 µM): 73.4%
- viability, T/C (second compound 1 µM, first compound 0.03 µM): 19.5%
- viability, T/C (second compound 1 µM, first compound 0.0949 µM): 14.9%
- viability, T/C (second compound 1 µM, first compound 0.3 µM): 4.87%
- viability, T/C (second compound 3.16 µM, first compound 0.000949 µM): 121%
- viability, T/C (second compound 3.16 µM, first compound 0.003 µM): 120%
- viability, T/C (second compound 3.16 µM, first compound 0.00949 µM): 73.3%
- viability, T/C (second compound 3.16 µM, first compound 0.03 µM): 20.1%
- viability, T/C (second compound 3.16 µM, first compound 0.0949 µM): 12.1%
- viability, T/C (second compound 3.16 µM, first compound 0.3 µM): 4.74%
- viability, T/C (second compound 10 µM, first compound 0.000949 µM): 99.5%
- viability, T/C (second compound 10 µM, first compound 0.003 µM): 117%
- viability, T/C (second compound 10 µM, first compound 0.00949 µM): 74.5%
- viability, T/C (second compound 10 µM, first compound 0.03 µM): 22.1%
- viability, T/C (second compound 10 µM, first compound 0.0949 µM): 12.8%
- viability, T/C (second compound 10 µM, first compound 0.3 µM): 2.47%

— PubChem BioAssay AID1919000 (Molecular Pharmacology Branch, DTP, NCI, 2023)
